Patent US9861679B2, “Method of treating cancer” (priority 2014, dated 2018)

How the values were obtained:
[1] = test system: MLL-ENL-luciferase leukemic cells; experiment: Anti-tumour efficacy in mice bearing MLL-ENL-luciferase leukemia; type: in vivo, mouse; details: mice bearing MLLENL-Luc, after one week of treatment; birinapant 5 mg/kg, LY2228820 10 mg/kg i.p. twice a week; FIG. 8A
Protocol: FIG. 8: Combination of birinapant with p38 inhibitor decreases AML tumor burden. Mice bearing MLLENL-luciferase (A and B) or MLL-AF9 (C) leukemic cells received i.p injections of birinapant (5 mg/kg), LY2228820 (10 mg/kg) or the combined drugs twice a week for 4 weeks. A. Representative data of in vivo imaging of leukaemia progression in mice bearing MLL-ENL-luciferase. B. Kaplan-Meier survival curve of mice bearing MLL-ENL-luciferase and treated or not with birinapant, LY222820 or combined therapy. C. Kaplan-Meier survival curve of mice bearing MLL-AF9 and treated or not with birinapant, LY222820 or combined therapy.
To assess the anti-tumour efficacy of SMAC mimetic plus p38 inhibitor C57BL6 Albinos mice were injected by intra-venous route with 5·10^5 MLLENLluc. Luciferase activity was measured at D4 and D8 after leukemic cells injection to ensure engraftment. Treatment started at D8. Mice were treated twice a week for 4 weeks with either vehicle (6% Captisol), 5 mg/kg of Birinapant, or 10 mg/kg of LY222820 or combination. Mice were monitored for leukemia progression once a week using the in vivo bioluminescent imaging. […]
To assess the therapeutic efficacy of the combination multiple primary MLL-ENL and MLL-AF9 leukemias were transplanted and the secondary recipient mice were treated with the different drugs. […] The engraftment and trafficking were evaluated by in vivo bioluminescent imaging. […]

[2] = test system: human AML patient samples; experiment: In vitro response of human AML patient samples to Birinapant; type: cell-based; details: single agent
[3] = test system: advanced solid tumours and lymphoma; details: intravenous administration, Phase I, patients; cited from earlier work
[4] = test system: Bone Marrow Derived Macrophages (BMDM); experiment: TNFα production by ELISA in BMDM treated with SMAC mimetic ± p38 inhibitors (kinase inhibitors screen); type: cell-based, mouse; details: 500 nM CompA, GT13072 or birinapant ± 1 μM LY2228820, FIG. 1B
Protocol: FIG. 1: p38 inhibitors increase TNFα production and cell death induced by SMAC mimetics. A. Bone Marrow Derived Macrophages (BMDM) were pretreated ±1 μM of the indicated p38 inhibitors for 30 min then treated with 500 nM of SMAC mimetic Compound A (CompA) for 24 h. TNFα production was measured by ELISA of supernatants. B. BMDM were pretreated 500 nM of SMAC mimetic Compound A, GT13072 or birinapant ±1 μM of LY2228820. TNFα production was measured by ELISA of supernatants. N=3 biological repeats and error bars are SEM. C. BMDM were pretreated±the indicated dose of MK2 inhibitor PF-3644022 and the p38 inhibitor LY2228820, VX-702, TAK-715 or VX-745 for 30 min then treated with 500 nM of SMAC mimetic Compound A. Cell viability was measured after 24 h of treatment using CellTiter-Glo® (CTG) reagent. N=3 biological repeats and error bars are SEM. BMDMs from C56/B16, p38α^LysMCre or Mk2^−/− were cultured for 6 days in DMEM+10% FBS (v/v)+20% L929 mouse fibroblasts (a source of macrophage colony stimulating factor), plated and assayed the following day. BMDMs cells were seeded and assayed in the presence of L929 conditioned medium. AML cells were cultured in IMDM+10% FBS (v/v)+2.5 ng/ml of IL-3. […] After treatment with SMAC mimetic with or without kinases inhibitors cell viability was measured by staining with propidium iodide (2 μg/mL) or by using CellTiter-Glo® (Promega). […]

[5] = test system: Bone Marrow Derived Macrophages (BMDM); experiment: BMDM cell viability (CellTiter-Glo) after SMAC mimetic Compound A ± p38 or MK2 inhibitor; type: cell-based, mouse; details: inhibitor 30 min then 500 nM Compound A, 24 h, FIG. 1C
Protocol: FIG. 1: p38 inhibitors increase TNFα production and cell death induced by SMAC mimetics. A. Bone Marrow Derived Macrophages (BMDM) were pretreated ±1 μM of the indicated p38 inhibitors for 30 min then treated with 500 nM of SMAC mimetic Compound A (CompA) for 24 h. TNFα production was measured by ELISA of supernatants. B. BMDM were pretreated 500 nM of SMAC mimetic Compound A, GT13072 or birinapant ±1 μM of LY2228820. TNFα production was measured by ELISA of supernatants. N=3 biological repeats and error bars are SEM. C. BMDM were pretreated±the indicated dose of MK2 inhibitor PF-3644022 and the p38 inhibitor LY2228820, VX-702, TAK-715 or VX-745 for 30 min then treated with 500 nM of SMAC mimetic Compound A. Cell viability was measured after 24 h of treatment using CellTiter-Glo® (CTG) reagent. N=3 biological repeats and error bars are SEM.
BMDMs from C56/B16, p38α^LysMCre or Mk2^−/− were cultured for 6 days in DMEM+10% FBS (v/v)+20% L929 mouse fibroblasts (a source of macrophage colony stimulating factor), plated and assayed the following day. BMDMs cells were seeded and assayed in the presence of L929 conditioned medium. AML cells were cultured in IMDM+10% FBS (v/v)+2.5 ng/ml of IL-3. NCI-H929 cells were cultured in RPMI+10% FBS (v/v). Cell suspension from breast ER+ patient derived tumours was cultured in mammosphere media. After treatment with SMAC mimetic with or without kinases inhibitors cell viability was measured by staining with propidium iodide (2 μg/mL) or by using CellTiter-Glo® (Promega).

C57BL/6 mice = experiment: Tolerability of SMAC mimetic plus p38 inhibitor in non tumour-bearing mice; type: in vivo; details: LY2228820 15 mg/kg combined with GT13072 5 mg/kg; FIG. 7C
Protocol: FIG. 7: Mice tolerate administration of birinapant plus p38 inhibitor. A. Mononuclear cells isolated from healthy donor by Ficoll sedimentation were treated for 48 h with indicated drugs. CD34^+ cell death was measured by staining with PI and flow cytometry. For each donor sample, graphs show mean of at least n=2 technical replicates across n=2-5 independent experiments. B and C. C57BL/6 mice were intra-peritoneally injected with vehicle (captisol 6%) or birinapant (B) or GT13072 (C) or LY2228820 or combination of LY2228820 and SM at indicated concentration. Mice received 8 injections twice a week over 4 weeks. Mice were euthanised 2 weeks after the treatment stopped. Graphs show organs, body weights and blood cell populations with 6 mice/group (B), 4 mice/group (C). Error bars are SEM.
To assess the safety of SMAC mimetic plus p38 inhibitor C57BL6 mice were injected by intra-peritoneal route twice a week for 4 weeks with either vehicle (6% Captisol) or 15 mg/kg of LY222820 or 5 mg/kg birinapant±15 mg/kg LY2228820, or 10 mg/kg birinapant±15 mg/kg LY2228820. Another cohort received either vehicle or 5 mg/kg of GT13072, or 15 mg/kg of LY222820 or combination.
200 μL of blood was collected from the retro-orbital plexus into tubes containing potassium ethylenediaminetetraacetic acid (Sarstedt) and analyzed in an Advia 2120 automated hematologic analyzer (Bayer).

[6] = test system: low- and intermediate-1-risk Myelodysplastic syndromes; details: cited from earlier work
[7] = oral administration, Phase I/II, patients

CC[C@H](NC(=O)[C@H](C)NC)C(=O)N1C[C@@H](O)C[C@H]1Cc1c(-c2[nH]c3cc(F)ccc3c2C[C@@H]2C[C@H](O)CN2C(=O)[C@H](CC)NC(=O)[C@H](C)NC)[nH]c2cc(F)ccc12 [Birinapant]
response to treatment (bioluminescent imaging) [1]: did not
response to Birinapant treatment in vitro [2]: some human AML patient samples did not respond
anti-tumour activity [3]: evidence of anti-tumour activity
tolerability [3]: well tolerated with no dose-limiting toxicities

CC(C)(C)Cn1c(N)nc2ccc(-c3[nH]c(C(C)(C)C)nc3-c3ccc(F)cc3)nc21 [LY2228820]
TNF production of three different smac-mimetics [4]: increased TNF production
cell death induced by SMAC mimetics [5]: dramatically increased
effect on splenomegaly induced by GT13072 (C57BL/6 mice): did not even exacerbate

Cc1ccc(-c2ccc3c(ccc4sc5c(c43)NC[C@@H](C)NC5=O)n2)cn1 [PF-3644022]
cell death induced by SMAC mimetics [5]: dramatically increased

CCc1nc(-c2cccc(C)c2)c(-c2ccnc(NC(=O)c3ccccc3)c2)s1 [TAK-715]
cell death induced by SMAC mimetics [5]: dramatically increased

C[C@@H]1CN(Cc2ccc(F)cc2)[C@@H](C)CN1C(=O)c1cc2c(C(=O)C(=O)N(C)C)cn(C)c2cc1Cl [Talmapimod]
complete remission [6, 7]: only one patient achieved a complete remission
tolerability [6, 7]: well tolerated
duration of complete remission ([6]; the one patient with complete remission): more than 2 years

NC(=O)c1ccc(N(C(N)=O)c2c(F)cccc2F)nc1-c1ccc(F)cc1F [VX-702]
cell death induced by SMAC mimetics [5]: dramatically increased

O=c1ncn2nc(Sc3ccc(F)cc3F)ccc2c1-c1c(Cl)cccc1Cl [VX-745]
cell death induced by SMAC mimetics [5]: dramatically increased
